Results: patent US20090162413A1 (priority 1998, published 2009)
Like-named read-outs stand apart in the source and are kept apart here.

Experiment: Phase 1 single escalating intravenous dose safety and pharmacokinetics (Example 6)
Assay type: in vivo, human
Settings: for β: elimination rate constant; for tolerability: single IV doses of 100 to 900 μg
Description: In the present, first-time-in-man study, the safety and pharmacokinetics of zotarolimus were investigated following intravenous bolus administration of zotarolimus over a 100 to 900 μg dose range. The intravenous bolus dose administration would mimic the most rapid unexpected release of zotarolimus from drug-coated stents in vivo.
This was a Phase 1, single escalating dose, double-blind, randomized, placebo-controlled, single-center study. Sixty (60) adult healthy males were divided into 5 IV dose groups of 100, 300, 500, 700, and 900 μg.
Subjects were randomly assigned to receive a single intravenous dose of zotarolimus or a matching intravenous placebo under fasting conditions, as shown in the dosing scheme shown in Table 9.
Higher doses were administered after evaluating the safety data from the preceding lower dose groups. The treatment groups were separated by at least 7 days. For safety reasons, each treatment group was divided into two cohorts of six subjects and the doses of the two cohorts of a group were separated by at least 1 day.
Doses were administered as IV bolus over 3 minutes, with 8 subjects. Four subjects received zotarolimus and 4 subjects received placebo in each dose group. Blood concentrations of zotarolimus were sampled for 168 hours and measured using LC-MS/MS with a LOQ of 0.20 ng/mL
Seven (7)-mL blood samples were collected by venipuncture into evacuated collection tubes containing edetic acid (EDTA) prior to dosing (0 hour) and at 0.083 (5 min), 0.25, 0.5, 1, 2, 4, 8, 12, 16, 24, 36, 48, 72, 96, 120, 144, and 168 hours after dosing on Study Day 1.
Blood concentrations of zotarolimus were determined using a validated liquid/liquid extraction HPLC tandem mass spectrometric method (LC-MS/MS) (Ji et al., 2004). The lower limit of quantification of zotarolimus was 0.20 ng/mL using 0.3 mL blood sample. All calibration curves had coefficient of determination (r^2) values greater than or equal to 0.9923.
Safety was evaluated based on adverse event, physical examination, vital signs, ECG, injection site and laboratory tests assessments.
Pharmacokinetic parameter values of zotarolimus were estimated using noncompartmental methods.
To investigate the questions of dose proportionality and linear pharmacokinetics, an analysis of covariance (ANCOVA) was performed. Subjects were classified by dose level, and body weight was a covariate. The variables analyzed included β, Vdβ, dose-normalized C5, and logarithms of dose-normalized AUC0-last and dose-normalized AUC0-inf. The primary test of the hypothesis of invariance with dose was a test on dose-level effects with good power for a monotonic function of dose. In addition, the highest and lowest dose levels were compared within the framework of the ANCOVA

[1] = single IV bolus 100 μg, mean ± SD
[2] = single IV bolus 300 μg, mean ± SD
[3] = single IV bolus 500 μg, mean ± SD
[4] = single IV bolus 700 μg, mean ± SD
[5] = single IV bolus 900 μg, mean ± SD

Q: For `CO[C@H]1C[C@@H]2CC[C@@H](C)[C@@](O)(O2)C(=O)C(=O)N2CCCC[C@H]2C(=O)O[C@H]([C@H](C)C[C@@H]2CC[C@H](n3cnnn3)[C@H](OC)C2)CC(=O)[C@H](C)/C=C(\C)[C@@H](O)[C@@H](OC)C(=O)[C@H](C)C[C@H](C)/C=C/C=C/C=C/1C` [zotarolimus], which “dose proportionality of pharmacokinetics” value (IV, 100-900 μg dose range, with respect to C5 and AUC0-inf) is on record?
A: Its value is “dose-proportional”.

Q: What about the clearance (male, human, whole blood, range of means over single IV doses 100-900 μg, read-out: mean clearance) of the same compound?
A: Its clearance is 48.3 to 59.2 mL/min.

Q: What about the Vd (male, human, whole blood, range of means over single IV doses 100-900 μg, read-out: mean volume of distribution) of the same compound?
A: Its Vd is 113 to 202 L.

Q: What about the half-life (male, human, whole blood, range of means over the studied single IV doses 100-900 μg, read-out: mean half-life) of the same compound?
A: Its half-life is 26 to 40.2 h.

Q: What about the half-life (male, human, whole blood, single IV bolus 100 μg, harmonic mean ± pseudo-standard deviation, read-out: t1/2 (converted)) of the same compound?
A: Its half-life is 26 ± 6 h.

Q: And the AUC(0-t) (male, human, whole blood, single IV bolus 100 μg, mean ± SD)?
A: The AUC(0-t) was 24.6 ± 5.89 ng·h/mL.

Q: What about the AUC(0-inf) (male, human, whole blood, single IV bolus 100 μg, mean ± SD, read-out: AUC0-inf) of the same compound?
A: Its AUC(0-inf) is 35.3 ± 6.15 ng·h/mL.

Q: And the clearance (male, human, whole blood, single IV bolus 100 μg, mean ± SD, read-out: CL (converted))?
A: The clearance was 48.3 mL/min.

Q: And the half-life (male, human, whole blood, single IV bolus 300 μg, harmonic mean ± pseudo-standard deviation, read-out: t1/2 (converted))?
A: Its half-life is 35.9 ± 4.6 h.

Q: And the AUC(0-t) (male, human, whole blood, single IV bolus 300 μg, mean ± SD)?
A: Its AUC(0-t) is 77.8 ± 13.7 ng·h/mL.

Q: What about the AUC(0-inf) (male, human, whole blood, single IV bolus 300 μg, mean ± SD, read-out: AUC0-inf) of the same compound?
A: The AUC(0-inf) was 91.2 ± 14.7 ng·h/mL.

Q: And the clearance (male, human, whole blood, single IV bolus 300 μg, mean ± SD, read-out: CL (converted))?
A: Its clearance is 56 mL/min.

Q: And the half-life (male, human, whole blood, single IV bolus 500 μg, harmonic mean ± pseudo-standard deviation, read-out: t1/2 (converted))?
A: Its half-life is 40.2 ± 7.8 h.

Q: What about the concentration at 5 min (male, human, whole blood, single IV bolus 500 μg, healthy males, blood, concentration at 5 minutes, mean ± SD (N = 7), read-out: C5) of the same compound?
A: Its concentration at 5 min is 56.5 ± 27.5 ng/mL.

Q: What about the AUC(0-t) (male, human, whole blood, single IV bolus 500 μg, mean ± SD) of the same compound?
A: The AUC(0-t) was 146 ± 32.4 ng·h/mL.

Q: What about the AUC(0-inf) (male, human, whole blood, single IV bolus 500 μg, mean ± SD, read-out: AUC0-inf) of the same compound?
A: Its AUC(0-inf) is 162 ± 29.6 ng·h/mL.

Q: What about the clearance (male, human, whole blood, single IV bolus 500 μg, mean ± SD, read-out: CL (converted)) of the same compound?
A: The clearance was 52.8 mL/min.

Q: What about the AUC(0-t) (male, human, whole blood, single IV bolus 700 μg, mean ± SD) of the same compound?
A: Its AUC(0-t) is 208 ± 19.4 ng·h/mL.

Q: And the AUC(0-inf) (male, human, whole blood, single IV bolus 700 μg, mean ± SD, read-out: AUC0-inf)?
A: The AUC(0-inf) was 222 ± 19.6 ng·h/mL.

Q: What about the AUC(0-t) (male, human, whole blood, single IV bolus 900 μg, mean ± SD) of the same compound?
A: Its AUC(0-t) is 241 ± 19.2 ng·h/mL.

Q: What about the AUC(0-inf) (male, human, whole blood, single IV bolus 900 μg, mean ± SD, read-out: AUC0-inf) of the same compound?
A: Its AUC(0-inf) is 254 ± 17.6 ng·h/mL.

Q: And the clearance (male, human, whole blood, single IV bolus 900 μg, mean ± SD, read-out: CL (converted))?
A: Its clearance is 59.2 mL/min.

Q: And the β [1]?
A: Its β is 0.027 ± 0.006 h⁻¹.

Q: And the AUC0-inf/Dose [1]?
A: The AUC0-inf/Dose was 0.35 ± 0.06 ng·h/mL/µg.

Q: What about the AUC0-last/Dose [1] of the same compound?
A: The AUC0-last/Dose was 0.25 ± 0.06 ng·h/mL/µg.

Q: And the C5/Dose [1]?
A: Its C5/Dose is 0.13 ± 0.03 ng/mL/µg.

Q: And the Vdβ [1]?
A: Its Vdβ is 113 ± 23 L.

Q: And the β [2]?
A: Its β is 0.019 ± 0.002 h⁻¹.

Q: And the AUC0-inf/Dose [2]?
A: Its AUC0-inf/Dose is 0.30 ± 0.05 ng·h/mL/µg.

Q: What about the AUC0-last/Dose [2] of the same compound?
A: Its AUC0-last/Dose is 0.26 ± 0.05 ng·h/mL/µg.

Q: What about the C5/Dose [2] of the same compound?
A: Its C5/Dose is 0.12 ± 0.03 ng/mL/µg.

Q: What about the Vdβ [2] of the same compound?
A: The Vdβ was 175 ± 23 L.

Q: What about the β [3] of the same compound?
A: The β was 0.017 ± 0.003 h⁻¹.

Q: And the C5 (single IV bolus 500 μg, healthy males, blood, concentration at 5 minutes, mean ± SD (N = 7))?
A: The C5 was 56.50 ± 27.54 ng/mL.

Q: What about the AUC0-inf/Dose [3] of the same compound?
A: Its AUC0-inf/Dose is 0.32 ± 0.06 ng·h/mL/µg.

Q: And the AUC0-last/Dose [3]?
A: Its AUC0-last/Dose is 0.29 ± 0.06 ng·h/mL/µg.

Q: What about the AUC(0-inf) [3] of the same compound?
A: Its AUC(0-inf) is 162.44 ± 9.58 ng·h/mL.

Q: And the C5/Dose [3]?
A: Its C5/Dose is 0.11 ± 0.05 ng/mL/µg.

Q: And the Vdβ [3]?
A: Its Vdβ is 190 ± 49 L.

Q: And the β [4]?
A: Its β is 0.020 ± 0.001 h⁻¹.

Q: What about the t1/2 (single IV bolus 700 μg, harmonic mean ± pseudo-standard deviation) of the same compound?
A: The t1/2 was 35.0 ± 2.4 h.

Q: What about the AUC0-inf/Dose [4] of the same compound?
A: Its AUC0-inf/Dose is 0.32 ± 0.03 ng·h/mL/µg.

Q: And the AUC0-last/Dose [4]?
A: Its AUC0-last/Dose is 0.30 ± 0.03 ng·h/mL/µg.

Q: And the C5/Dose [4]?
A: Its C5/Dose is 0.13 ± 0.01 ng/mL/µg.

Q: And the CL [4]?
A: Its CL is 3.18 ± 0.28 L/h.

Q: What about the Vdβ [4] of the same compound?
A: The Vdβ was 161 ± 15 L.

Q: And the β [5]?
A: Its β is 0.018 ± 0.002 h⁻¹.

Q: What about the t1/2 (single IV bolus 900 μg, harmonic mean ± pseudo-standard deviation) of the same compound?
A: Its t1/2 is 39.0 ± 3.9 h.

Q: And the AUC0-inf/Dose [5]?
A: Its AUC0-inf/Dose is 0.28 ± 0.02 ng·h/mL/µg.

Q: What about the AUC0-last/Dose [5] of the same compound?
A: The AUC0-last/Dose was 0.27 ± 0.02 ng·h/mL/µg.

Q: And the C5/Dose [5]?
A: Its C5/Dose is 0.12 ± 0.02 ng/mL/µg.

Q: What about the Vdβ [5] of the same compound?
A: The Vdβ was 202 ± 29 L.

Q: What about the serious adverse events (single IV doses 100-900 μg) of the same compound?
A: Its serious adverse events is “no serious adverse events”.

Q: What about the tolerability (healthy males) of the same compound?
A: The tolerability was “without safety concerns”.

Q: What about the tolerability (healthy males, listed as Zotarolimus) of the same compound?
A: Its tolerability is “generally well tolerated”.

Q: What about the “most common treatment-emergent adverse events” value (single IV doses, reported by two or more subjects in any one treatment group) of the same compound?
A: Its value is “injection site reaction and pain”.
